# Test results published in patent US8372843B2, “Quinolines useful as modulators of ION channels” (Vertex Pharmaceuticals Incorporated, priority 2005, dated 2013).
# Like-named read-outs stand apart in the source and are kept apart here.
# Experiments:
# NaV1.8 [1] = molecular target: T1, NaV1.8 (Homo sapiens, UniProt Q9Y5Y9); assay: Activity against NaV1.8 channel (Table 4); assay type: cell-based
# Description: Compounds of the invention are useful as antagonists of voltage-gated sodium ion channels. Antagonist properties of test compounds were assessed as follows. Cells expressing the NaV of interest were placed into microtiter plates. After an incubation period, the cells were stained with fluorescent dyes sensitive to the transmembrane potential. The test compounds were added to the microtiter plate. The cells were stimulated with either a chemical or electrical means to evoke a NaV dependent membrane potential change from unblocked channels, which was detected and measured with trans-membrane potential-sensitive dyes. Antagonists were detected as a decreased membrane potential response to the stimulus. The optical membrane potential assay utilized voltage-sensitive FRET sensors described by Gonzalez and Tsien (See, Gonzalez, J. E. and R. Y. Tsien (1995) “Voltage sensing by fluorescence resonance energy transfer in single cells” Biophys J 69(4): 1272-80, and Gonzalez, J. E. and R. Y. Tsien (1997) “Improved indicators of cell membrane potential that use fluorescence resonance energy transfer” Chem Biol 4(4): 269-77) in combination with instrumentation for measuring fluorescence changes such as the Voltage/Ion Probe Reader (VIPR®) (See, Gonzalez, J. E., K. Oades, et al. (1999) “Cell-based assays and instrumentation for screening ion-channel targets” Drug Discov Today 4(9): 431-439). B) VIPR® optical membrane potential assay method with chemical stimulation
# 24 hours before the assay on VIPR, CHO cells endogenously expressing a NaV1.2 type voltage-gated NaV are seeded in 96-well poly-lysine coated plates at 60,000 cells per well. […] The cells are then incubated for 20-30 minutes. • 7) Once the incubation is complete, the cells are ready to be assayed on VIPR® with a sodium addback protocol. […]
# The following is an example of how NaV1.3 inhibition activity is measured using the optical membrane potential method#2. […]
# neuropathic pain = settings: in vivo; cited from earlier work
# NaV1.3 = NaV1.3 (Homo sapiens, UniProt Q9NY46); settings: read-out: TTX IC50; cited from earlier work
# NaV1.2 = NaV1.2 (Homo sapiens, UniProt Q99250); settings: read-out: TTX IC50; cited from earlier work
# NaV1.2, sequence (Q99250 whole entry, looked up): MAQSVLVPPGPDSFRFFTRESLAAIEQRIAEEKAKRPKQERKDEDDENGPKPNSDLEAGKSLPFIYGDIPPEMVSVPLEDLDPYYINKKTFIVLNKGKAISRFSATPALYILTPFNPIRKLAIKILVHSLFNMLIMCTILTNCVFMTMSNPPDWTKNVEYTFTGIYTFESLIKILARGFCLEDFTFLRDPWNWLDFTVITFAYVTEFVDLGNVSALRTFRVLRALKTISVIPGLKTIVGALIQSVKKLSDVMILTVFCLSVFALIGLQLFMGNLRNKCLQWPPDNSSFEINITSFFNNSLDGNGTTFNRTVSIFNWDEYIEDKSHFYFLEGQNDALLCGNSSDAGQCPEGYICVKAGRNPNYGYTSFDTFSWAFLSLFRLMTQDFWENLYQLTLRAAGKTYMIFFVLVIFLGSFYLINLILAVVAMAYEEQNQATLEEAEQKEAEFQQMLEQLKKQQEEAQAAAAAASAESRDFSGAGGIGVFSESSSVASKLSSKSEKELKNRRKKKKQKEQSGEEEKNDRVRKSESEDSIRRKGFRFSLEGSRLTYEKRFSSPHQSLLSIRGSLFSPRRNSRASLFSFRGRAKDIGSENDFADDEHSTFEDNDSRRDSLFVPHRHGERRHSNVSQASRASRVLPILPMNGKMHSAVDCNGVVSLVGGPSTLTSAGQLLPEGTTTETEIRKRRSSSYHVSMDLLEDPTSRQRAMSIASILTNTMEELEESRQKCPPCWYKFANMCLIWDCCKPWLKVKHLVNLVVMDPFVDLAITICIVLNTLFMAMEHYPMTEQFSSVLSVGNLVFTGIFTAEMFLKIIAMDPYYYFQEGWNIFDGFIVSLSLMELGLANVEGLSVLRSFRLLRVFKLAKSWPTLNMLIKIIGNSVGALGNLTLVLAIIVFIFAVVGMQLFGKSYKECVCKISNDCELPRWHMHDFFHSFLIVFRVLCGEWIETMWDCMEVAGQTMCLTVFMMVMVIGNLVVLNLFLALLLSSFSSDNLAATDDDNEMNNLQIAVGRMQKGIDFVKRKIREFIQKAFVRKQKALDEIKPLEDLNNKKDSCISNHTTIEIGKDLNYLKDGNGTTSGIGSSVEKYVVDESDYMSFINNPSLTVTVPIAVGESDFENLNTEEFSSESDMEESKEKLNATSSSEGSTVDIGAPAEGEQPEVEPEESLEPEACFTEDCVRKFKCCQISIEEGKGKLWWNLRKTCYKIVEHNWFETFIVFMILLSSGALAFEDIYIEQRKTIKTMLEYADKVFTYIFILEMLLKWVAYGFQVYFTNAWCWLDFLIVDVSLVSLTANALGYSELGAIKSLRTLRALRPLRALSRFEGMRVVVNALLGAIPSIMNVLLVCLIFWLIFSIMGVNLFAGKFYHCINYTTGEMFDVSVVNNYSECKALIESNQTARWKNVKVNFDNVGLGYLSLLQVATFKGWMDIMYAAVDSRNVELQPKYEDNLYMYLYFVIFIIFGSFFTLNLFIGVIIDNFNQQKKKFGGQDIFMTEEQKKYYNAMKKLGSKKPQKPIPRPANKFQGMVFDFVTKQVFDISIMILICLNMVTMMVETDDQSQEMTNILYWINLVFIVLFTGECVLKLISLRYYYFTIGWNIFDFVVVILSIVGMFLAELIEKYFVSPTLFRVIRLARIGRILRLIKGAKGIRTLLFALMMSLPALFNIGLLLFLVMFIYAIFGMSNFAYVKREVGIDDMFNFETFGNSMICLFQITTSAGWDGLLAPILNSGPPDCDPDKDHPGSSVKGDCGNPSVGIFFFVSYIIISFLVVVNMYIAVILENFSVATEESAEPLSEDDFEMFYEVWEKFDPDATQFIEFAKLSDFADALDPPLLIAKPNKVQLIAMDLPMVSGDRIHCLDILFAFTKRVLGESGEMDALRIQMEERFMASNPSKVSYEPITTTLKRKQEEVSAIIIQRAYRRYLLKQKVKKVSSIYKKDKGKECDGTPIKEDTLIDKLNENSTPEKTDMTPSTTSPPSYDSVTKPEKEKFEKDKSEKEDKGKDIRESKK
# NaV1.8 [2] = molecular target: T1, NaV1.8; settings: read-out: TTX IC50; cited from earlier work
# NaV1.1 = NaV1.1 (Homo sapiens, UniProt P35498); settings: read-out: TTX IC50; cited from earlier work
# NaV1.9 = NaV1.9 (Homo sapiens, UniProt Q9UI33); settings: read-out: TTX IC50; cited from earlier work
# NaV1.6 = NaV1.6 (Homo sapiens, UniProt Q9UQD0); settings: read-out: TTX IC50; cited from earlier work
# NaV1.6, sequence (Q9UQD0 whole entry, looked up): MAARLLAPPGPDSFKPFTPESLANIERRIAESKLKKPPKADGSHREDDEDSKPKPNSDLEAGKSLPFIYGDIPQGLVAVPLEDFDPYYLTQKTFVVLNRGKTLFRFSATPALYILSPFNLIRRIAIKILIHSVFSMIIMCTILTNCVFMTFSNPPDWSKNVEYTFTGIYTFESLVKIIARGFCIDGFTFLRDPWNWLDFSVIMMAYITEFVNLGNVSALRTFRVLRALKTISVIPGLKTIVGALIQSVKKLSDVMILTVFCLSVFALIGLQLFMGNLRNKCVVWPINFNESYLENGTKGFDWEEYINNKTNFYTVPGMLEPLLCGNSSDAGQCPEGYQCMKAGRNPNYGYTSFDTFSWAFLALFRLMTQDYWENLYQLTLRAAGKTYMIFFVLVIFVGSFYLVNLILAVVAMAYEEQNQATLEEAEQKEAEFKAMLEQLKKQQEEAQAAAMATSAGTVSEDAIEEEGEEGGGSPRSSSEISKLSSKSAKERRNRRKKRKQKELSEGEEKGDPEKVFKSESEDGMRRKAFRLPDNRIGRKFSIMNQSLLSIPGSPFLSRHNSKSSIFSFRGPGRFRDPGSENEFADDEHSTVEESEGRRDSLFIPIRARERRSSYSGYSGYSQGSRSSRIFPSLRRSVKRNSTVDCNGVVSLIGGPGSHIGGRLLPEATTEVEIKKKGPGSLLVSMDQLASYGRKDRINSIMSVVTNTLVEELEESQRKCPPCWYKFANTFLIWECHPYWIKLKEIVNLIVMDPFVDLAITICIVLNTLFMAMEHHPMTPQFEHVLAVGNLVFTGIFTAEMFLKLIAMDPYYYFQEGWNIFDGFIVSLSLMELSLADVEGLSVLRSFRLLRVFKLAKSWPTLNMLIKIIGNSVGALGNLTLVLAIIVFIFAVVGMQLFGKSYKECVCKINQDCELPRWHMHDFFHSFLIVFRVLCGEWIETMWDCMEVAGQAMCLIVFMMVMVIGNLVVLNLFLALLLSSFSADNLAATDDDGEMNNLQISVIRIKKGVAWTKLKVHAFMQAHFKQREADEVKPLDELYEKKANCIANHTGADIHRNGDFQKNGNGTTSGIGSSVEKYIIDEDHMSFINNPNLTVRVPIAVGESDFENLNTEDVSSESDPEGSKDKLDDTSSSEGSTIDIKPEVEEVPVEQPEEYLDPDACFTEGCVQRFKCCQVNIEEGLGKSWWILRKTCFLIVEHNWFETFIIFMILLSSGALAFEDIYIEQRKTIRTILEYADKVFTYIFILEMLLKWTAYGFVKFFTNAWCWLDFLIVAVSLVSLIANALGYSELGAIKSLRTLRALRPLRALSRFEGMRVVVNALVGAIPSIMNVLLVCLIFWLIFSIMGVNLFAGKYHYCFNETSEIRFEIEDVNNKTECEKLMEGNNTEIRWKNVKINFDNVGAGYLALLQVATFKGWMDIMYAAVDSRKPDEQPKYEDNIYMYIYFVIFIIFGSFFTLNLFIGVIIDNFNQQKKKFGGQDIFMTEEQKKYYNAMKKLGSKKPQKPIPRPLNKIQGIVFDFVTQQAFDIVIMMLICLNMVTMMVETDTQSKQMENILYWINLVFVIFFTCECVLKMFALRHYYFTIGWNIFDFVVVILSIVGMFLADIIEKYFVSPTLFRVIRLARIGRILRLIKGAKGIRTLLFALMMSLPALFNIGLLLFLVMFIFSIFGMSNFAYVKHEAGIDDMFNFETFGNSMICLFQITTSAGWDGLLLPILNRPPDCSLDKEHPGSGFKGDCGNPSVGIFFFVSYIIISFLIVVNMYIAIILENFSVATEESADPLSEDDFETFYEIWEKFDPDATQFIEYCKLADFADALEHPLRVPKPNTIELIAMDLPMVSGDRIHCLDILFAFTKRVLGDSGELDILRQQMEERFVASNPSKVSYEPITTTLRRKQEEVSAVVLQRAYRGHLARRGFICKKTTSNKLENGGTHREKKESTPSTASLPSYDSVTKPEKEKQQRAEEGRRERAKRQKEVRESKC
compound,measurement,setting,value
"CC(C)COC(=O)NC1CCN(c2nc(-c3ccccc3O)cc3ccccc23)CC1 [Compound 1, Isobutyl 1-(3-(2-hydroxyphenyl)isoquinolin-1-yl)piperidin-4-ylcarbamate]",IC50,NaV1.8 [1],10000 to 15000 nM
"CC(C)COC(=O)N1CCN(c2nc(-c3ccccc3O)cc3ccccc23)CC1 [Compound 3, Isobutyl 4-(3-(2-hydroxyphenyl)isoquinolin-1-yl)piperazine-1-carboxylate]",IC50,NaV1.8 [1],> 15000 nM
"CC(C)COC(=O)N1CCN(c2nc(-c3ccccc3C(F)F)cc3ccccc23)CC1 [Compound 4, Isobutyl 4-(3-(2-(difluoromethyl)phenyl)isoquinolin-1-yl)piperazine-1-carboxylate]",IC50,NaV1.8 [1],> 15000 nM
NCC1(CC(=O)O)CCCCC1 [Gabapentin],share of patients in whom it works,neuropathic pain,60%
"NC1=N[C@H](O)[C@H]2[C@H]3O[C@]4(O)O[C@@H]([C@@H](O)[C@@]2(N1)[C@@H]4O)[C@]3(O)CO [TTX, tetrodotoxin]",IC50,NaV1.3,15 nM
same,IC50,NaV1.2,10 nM
same,IC50,NaV1.8 [2],> 50000 nM
same,IC50,NaV1.1,10 nM
same,IC50,NaV1.9,1000 nM
same,IC50,NaV1.6,6 nM
